Patent US7273888B2, “Use of difluoromethylornithine (DFMO) for the treatment of amyotrophic lateral sclerosis” (ALS Therapy Development Foundation, Inc., priority 2001, dated 2007)

What was measured:
[1] = system: SOD1 G93A mice; test: Survival analysis (Kaplan-Meier) in SOD1 G93A (high copy) mouse model of ALS
Text: (i) Model Description: The SOD1 G93A (high copy) mouse model was used as the model for ALS. This mouse model carries 25 copies of the human G93A SOD mutation and is driven by the endogenous promoter.
(ii) Murine FALS model: Heterozygous transgenic mice carrying the human SOD-1 (G93A) gene were obtained from Jackson Laboratory (Bar Harbor, Me., USA).
(iv) Methods: Forty (n=40) SOD1 G93A high copy mice obtained from Jackson Laboratory (Bar Harbor, Me.) were separated into two groups of twenty (n=20) with an equal number of males (n=10) and females (n=10) in each group. The groups were also litter matched to reduce group variation. Male animals were singly housed and females were group housed to conserve space. […] When animals had difficulty in moving and taking care of themselves chow and water were replaced with food pellets in bedding and Jell-O for water. (v) Pharmacological Agent Delivery: All pharmacological agents were administered to SOD1 G93A mice.
Controls animals were given water as vehicle. All treatments are performed 7 days per week and treatment was initiated at day 60 of life. […] When a neurological score of 2 is attained, the animals are no longer capable of drinking themselves due to paralysis. […] Controls were given water as vehicle until a neurological score of 2 at which point they were injected with saline as vehicle.
• 0=Normal reflex on the hind limbs (animal will splay its hind limbs when lifted by its tail). • 1=Abnormal reflex of hind limbs (lack of splaying of hind limbs when animal is lifted by the tail). • 2=Abnormal reflex of limbs and evidence of paralysis. • 3=Lack of reflex and complete paralysis. • 4=Inability to right themselves when placed on the sides in 30 seconds or found dead. The animals are sacrificed at this stage if alive.

[2] = system: SOD1 G93A mice; test: Neurological score analysis in SOD1 G93A (high copy) mouse model of ALS; format: in vivo
Text: Survival in the mouse is copy dependent.
Controls animals were given water as vehicle.

[3] = system: patients with advanced non-small cell lung cancer; conditions: Phase I, advanced non-small cell lung cancer (Hahm et al. 2002); cited from earlier work
[4] = system: SOD1 G93A mice; conditions: mouse, in vivo, ip, 250 mg/kg/day
[5] = discontinuous dosing 3200 mg/Kg/day in drinking water, 21 days on / 7 days off
[6] = female mice, IP 24 mg/kg/day twice daily till death, FIG. 12

## NCCCC(N)(C(=O)O)C(F)F (racemic) [DFMO, 2-(Difuoromethyl)-DL-ornithine]
[1]; continuous dosing 3200 mg/Kg/day in drinking water, no drug holiday
  onset of disease: delays the onset of disease
[1]; continuous dosing 3200 mg/Kg/day in drinking water, no drug holiday, combined, male and female, FIGS. 4, 6 and 8
  life span: extended the life span
[1]; [5]
  onset of disease: delays the onset of disease
  survival: extends the survival
[1]; females, discontinuous dosing 3200 mg/Kg/day in drinking water, 21 days then 7 day drug holiday, FIG. 2
  deaths of animals in the treatment group during the drug holiday or a few days immediately succeeding it: 70%
[1]; ongoing IP injection study, 3200 mg/kg, male mice
  trend in male mice: positive male trend
[2]; combined male and female, continuous dosing 3200 mg/Kg/day, FIGS. 5
  effect on neurological score: protective
[2]; female mice, discontinuous dosing 3200 mg/Kg/day, during the drug delivery period
  effect on neurological score: protective
[2]; female, continuous dosing 3200 mg/Kg/day, FIG. 9
  effect on neurological score: protective
[2]; male, continuous dosing 3200 mg/Kg/day, FIG. 7
  effect on neurological score: protective

## CCNCCCNCCCNCCCNCC [DENSPM, N(1),N(11)-diethylnorspermine]
[1]; [6]
  onset of disease: delays the onset of disease
  survival: extends the survival
[3]
  toxicity in patients: minimal toxicity
[2]; female mice, IP 24 mg/kg/day twice daily till death, FIG. 13
  effect on neurological score: protective

## NC(=O)NO [hydroxyurea]
[1]; IP 250 mg/Kg/day once daily, day 50 until day 110
  onset of ALS disease: delays the onset of ALS disease
[1]; female mice, IP 250 mg/Kg/day once daily, day 50 until day 110, FIG. 10
  life span: extended the life span
[2]; female mice, IP 250 mg/Kg/day once daily, day 50 until day 110, FIG. 11
  effect on neurological score: protective
[4]
  toxicity leading to stop of treatment: discontinued after day 110 due to toxicity
